Article PMC6864647, “Synthesis and Antiviral Activity of Novel 1,3,4-Thiadiazole Inhibitors of DDX3X” (Molecules, 2019)
Read-outs that look alike come from different tables or passages of the source.

Key:
DDX3X ATPase = molecular target: T1, DDX3X ATPase (Homo sapiens, UniProt O00571); experiment: DDX3X ATPase assay (ADP-Glo); format: biochemical; conditions: recombinant human DDX3X, 50 μM ATP, mean ± SD of three experiments; for Ki: read-out: DDX3X ATPase Ki (apparent dissociation constant for inhibitor binding)
T1 construct: Recombinant his-tagged human full length DDX3X was cloned into the E. coli expression vector pET-30a(+); His tag; made in house; host or cells: Shuffle T7 E. coli
Description: Recombinant his-tagged human full length DDX3X was cloned into the E. coli expression vector pET-30a(+). Shuffle T7 E. coli cells were transformed with the plasmid and grown at 37 °C up to OD600 = 0.7. DDX3X expression was induced with 0.5 mM IPTG at 15 °C O/N. The cells were harvested by centrifugation, lysed, and the crude extract centrifuged at 100.000xg for 60 min. at 4 °C in a Beckman centrifuge before being loaded onto a FPLC Ni-NTA column (GE Healthcare). Column was equilibrated in Buffer A (50 mM Tris-HCl pH 8.0, 250 mM NaCl, 25 mM Imidazole, and 20% glycerol). After extensive washing in Buffer A, the column was eluted with a linear gradient in Buffer A from 25 mM to 250 mM Imidazole. Proteins in the eluted fractions were visualized on SDS-PAGE and then tested for the presence of DDX3X by Western blot with anti-DDX3X A300-475A(BETHYL) at 1:2000 dilution in 5% milk. Fractions containing the purest DDX3X protein were pooled and stored at −80 °C.
The ATPase assay was carried out by using the commercial kit Promega (Milan, Italy), ADP-Glo^TM Kinase Assay. Reaction was performed in 30 mM TrisHCl pH 8, 9 mM MgCl2, 0.05 mg/mL BSA, 50 μM ATP, and 4 μM of recombinant DDX3X. Reaction was performed following the ADP-Glo^TM Kinase Assay Protocol and luminescence was measured with MicroBeta TriLux (Perkin Elmer, Milan, Italy).

[1] = Parallel Artificial Membrane Permeability Assay (PAMPA); format: in vitro ADME; conditions: pH 7.4, 5 h; for Papp at 5 h, 0.5 mM: room temperature, read-out: AppP (apparent permeability)
Description: Finally, we evaluated passive membrane permeability (AppP) while using Parallel Artificial Membrane Permeability Assay (PAMPA). The quantity of compound able to diffuse through a semipermeable artificial membrane was calculated by LC-MS-MS.
Donor solution (0.5 mM) was prepared by diluting 1 mM dimethylsulfoxide (DMSO) compound stock solution while using phosphate buffer (pH 7.4, 0.025 M). Filters were coated with 5 μL of a 1% (w/v) dodecane solution of phosphatidylcholine for intestinal permeability. Donor solution (150 μL) was added to each well of the filter plate. To each well of the acceptor plate was added 300 μL of solution (50% DMSO in phosphate buffer). All of the compounds were tested in three different plates on different days. The sandwich was incubated for 5 h at room temperature under gentle shaking. After the incubation time, the plates were separated, and samples were taken from both receiver and donor sides and analyzed while using LC with UV detection at 280 nm. LC analysis was performed with a PerkinElmer (series 200) instrument that was equipped with an UV detector (PerkinElmer 785A, UV/vis Detector). Chromatographic separation was conducted using a Polaris C18 column (150–4.6 mm, 5 μm particle size) at a flow rate of 0.8 mL min^−1 with a mobile phase composed of 60% ACN/40% H2O-formic acid 0.1% for all compounds. Permeability (Papp) was calculated according to the following equation with some modification to obtain permeability values in cm/s, (1) Papp=VDVA/(VD+VA)At−ln(1−r) where VA is the volume in the acceptor well, VD is the volume in the donor well (cm^3), A is the “effective area” of the membrane (cm^2), t is the incubation time (s), and r the ratio between drug concentration in the acceptor and equilibrium concentration of the drug in the total volume(VD + VA).
Drug concentration is estimated by using the peak area integration. Membrane retentions (%) were calculated according to the following equation:(2) %MR=[r−(D+A)]100/Eq where r is the ratio between drug concentration in the acceptor and equilibrium concentration, D, A, and Eq represented drug concentration in the donor, acceptor, and equilibrium solution, respectively.

HIV-1 (NL4-3) = experiment: Antiviral BiCycle assay, HIV-1 NL4-3 in H9 cells with TZM-bl readout; format: cell-based; conditions: 72 h, then TZM-bl reporter cells 48 h
Description: The antiviral activity was evaluated by measuring the half maximal inhibitory concentration (IC50) values against the HIV-1 wild-type reference strain NL4-3 in a TZM-bl cell line based phenotypic assay, named BiCycle Assay. The method includes a first round of infection of human T cell lymphoma derived clone H9 at multiplicity of infection of 0.03 in the presence of serial dilution of compounds in a 96-well plate. After 72 h, 50 microliters of supernatants from each well were used to infect the TZM-bl cell line, which allow the quantitative analysis of HIV infection by measuring the expression of the luciferase gene integrated in the genome of the cells under the control of HIV-1 LTR promoter.
After 48 h, dose-response curves were generated by measuring reporter gene expression in each well by using the Bright-Glo Luciferase Assay (Promega) through the GloMax Discovery reader (Promega). Relative luminescence units measured in each well were elaborated with the GraphPad Software v.6.0 to calculate IC50 values. All the viruses and cell lines were obtained through the NIH AIDS Reagent Program (www.aidsreagent.org).

[2] = Cytotoxicity assay in H9 cells (CellTiter-Glo 2.0); format: cell-based, human; conditions: human; non-infected H9 cells, 72 h
Description: (§1) Cytotoxicity in H9 cells was determined by using the CellTiter-Glo 2.0 assay (Promega). H9 cells were seeded at 40,000 cells/well in duplicate in the presence of serial two-fold dilutions of compounds (range 200–1.56 μM) and incubated for 72 h. Cell viability was calculated by measuring cellular ATP as a marker of metabolically active cells through a luciferase based chemical reaction and expressed as the concentration that reduce cell viability by 50%.

Water solubility assay = format: physicochemical; conditions: 27 °C, thermodynamic from solid, 1 mg in 1 mL water
Description: […] After 24 h of stirring at 27 °C, the mixture was filtered and the quantity of solubilized compound determined by LC-MS-MS. […] By contrast, esters 30 and 31 due to their lipophilicity have values outside the recommended range […].
The appropriate (1 mg) was added to 1 mL of water. The sample was shaken in a shaker bath at room temperature for 24–36 h. The suspensions were filtered through a 0.45 μm nylon filter (Acrodisc, Sigma Aldrich, Milan, Italy) and the solubilized compound determined by LC-MS-MS assay. The determination was performed in triplicate. For the quantification, an LC-MS system consisting of a Varian apparatus (Varian Inc., Palo Alto, CA, USA), including a vacuum solvent degassing unit, two pumps (212-LC), a Triple Quadrupole MSD (Mod. 320-LC) mass spectrometer with ES interface, and Varian MS Workstation System Control Vers. 6.9 software, was used. Chromatographic separation was obtained while using a 3 μm particle size Pursuit C18 column (50 × 2.0 mm) (Varian). Column was equilibrated in Buffer B (aqueous solution of 0.1% formic acid) and eluted with a linear increase from 0% to 70% gradient of Buffer A (ACN) for 10 min. and subsequent increase up to 98% for additional 5 min. The instrument operated in positive mode and the following parameters were used: injection volume 5 μL, flow rate 0.3 mL/min, detector 1850 V, drying gas pressure 25.0 psi, desolvation temperature 300.0 °C, nebulizing gas 45.0 psi, needle 5000 V, and shield 600 V. Nebulizer gas and drying gas was Nitrogen. Argon was the collision gas at a pressure of 1.8 mTorr in the collision cell. Single compound quantification was performed in comparison with standard calibration curves in methanol.

H9 cells = experiment: Cytotoxicity assay in H9 cells (CellTiter-Glo 2.0); format: cell-based, human; conditions: CC50 in H9 cells versus anti-HIV-1 IC50
Description: as §1

HIV-1 = system: HIV-1; design: method as in PMID 18834110; conditions: MT4 cells; read-out: EC50, inhibition of HIV-1 replication; cited from earlier work
DDX3X = molecular target: DDX3X; design: method as in PMID 21698775; conditions: cited from earlier work
[3] = Human immunodeficiency virus 1, NL43, H9 cells
[4] = read-out: AqS (aqueous solubility)
[5] = read-out: AqS as Log of molar concentration (LogS) (converted)

T1 sequence (O00571 whole entry): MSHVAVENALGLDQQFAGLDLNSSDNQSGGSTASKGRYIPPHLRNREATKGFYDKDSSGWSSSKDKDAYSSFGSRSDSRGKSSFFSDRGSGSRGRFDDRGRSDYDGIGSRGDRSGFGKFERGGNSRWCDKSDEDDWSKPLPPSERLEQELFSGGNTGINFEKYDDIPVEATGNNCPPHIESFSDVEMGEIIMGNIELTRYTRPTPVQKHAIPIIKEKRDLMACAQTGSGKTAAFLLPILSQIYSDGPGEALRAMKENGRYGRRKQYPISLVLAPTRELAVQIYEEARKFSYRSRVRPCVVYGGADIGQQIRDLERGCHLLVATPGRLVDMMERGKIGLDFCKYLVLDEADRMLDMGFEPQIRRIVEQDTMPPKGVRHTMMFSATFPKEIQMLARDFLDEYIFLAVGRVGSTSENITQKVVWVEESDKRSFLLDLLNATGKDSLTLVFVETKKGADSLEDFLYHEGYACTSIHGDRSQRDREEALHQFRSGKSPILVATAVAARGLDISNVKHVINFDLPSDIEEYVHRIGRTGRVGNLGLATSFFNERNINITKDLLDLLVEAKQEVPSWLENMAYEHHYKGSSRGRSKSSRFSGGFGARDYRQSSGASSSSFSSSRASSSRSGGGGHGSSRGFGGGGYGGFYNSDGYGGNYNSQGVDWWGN

SMILES | Ki (DDX3X ATPase) [µM] | Percentage in parentheses beside AppP (membrane retention) [1] [%] | Papp at 5 h, 0.5 mM [1] [×10⁻⁶ cm/s] | IC50 (HIV-1 (NL4-3); [3]) [µM] | solubility at 24 h (Water solubility assay; [4]) [µg/mL] | solubility at 24 h (Water solubility assay; [5]) [µM] | CC50 at 72 h [2] [µM] | other results
COc1ccc(-c2nnc(NC(=O)c3ccccc3C(=O)O)s2)cc1 [Compound 23, 2-((5-(4-Methoxyphenyl)-1,3,4-thiadiazol-2-yl)carbamoyl)benzoic acid] | 1.3 ± 0.2 | 0 | < 0.1 | > 50 | 3.3 | 9.33 | > 200 | HIV-1 (NL4-3) IC50 (HIV-1 (NL4-3); H9 cells): inactive
O=C(O)c1ccccc1C(=O)Nc1nnc(-c2ccccc2Br)s1 [Compound 25, 2-((5-(2-Bromophenyl)-1,3,4-thiadiazol-2-yl)carbamoyl)benzoic acid] | – | – | – | – | – | – | – | DDX3X ATPase Ki (apparent dissociation constant for inhibitor binding) (DDX3X ATPase): abolished
O=C(O)c1ccccc1C(=O)Nc1nnc(-c2ccccc2[N+](=O)[O-])s1 [Compound 28, 2-((5-(2-Nitrophenyl)-1,3,4-thiadiazol-2-yl)carbamoyl)benzoic acid] | 18.3 ± 1.8 | – | – | 42.3 ± 5.2 | – | – | 74 | SI (selectivity index) (H9 cells): 1.7
COC(=O)c1ccccc1C(=O)Nc1nnc(-c2ccc(OC)cc2)s1 [Compound 29, Methyl 2-((5-(4-methoxyphenyl)-1,3,4-thiadiazol-2-yl)carbamoyl)benzoate] | 15.6 | 36 | 0.7 | – | 0.5 | 1.35 | 45 | –
CCCCOC(=O)c1ccccc1C(=O)Nc1nnc(-c2ccc(OC)cc2)s1 [Compound 31, Butyl 2-((5-(4-methoxyphenyl)-1,3,4-thiadiazol-2-yl)carbamoyl)benzoate] | 23.5 ± 2.5 | 25.9 | 6.1 | 16 ± 10 | < 0.1 | > 1 | 100 | –
COC(=O)c1ccccc1C(=O)Nc1nnc(-c2ccccc2[N+](=O)[O-])s1 [Compound 32, Methyl 2-((5-(2-nitrophenyl)-1,3,4-thiadiazol-2-yl)carbamoyl)benzoate] | – | – | – | – | – | – | – | DDX3X ATPase Ki (apparent dissociation constant for inhibitor binding) (DDX3X ATPase): annulled enzymatic inhibition
Nc1ccccc1-c1nnc(NC(=O)c2ccccc2S(=O)(=O)O)s1 [Compound 35, 2-((5-(2-Aminophenyl)-1,3,4-thiadiazol-2-yl)carbamoyl)benzenesulfonic acid] | 20.1 ± 2.1 | – | – | > 50 | – | – | 130 | –
Nc1ccccc1-c1nnc(NC(=O)c2ccccc2C(=O)O)s1 [Compound 36, 2-((5-(2-Aminophenyl)-1,3,4-thiadiazol-2-yl)carbamoyl)benzoic acid] | – | – | – | – | – | – | – | DDX3X ATPase Ki (apparent dissociation constant for inhibitor binding) (DDX3X ATPase): total loss of inhibitory capability
O=C(CN1C(=O)/C(=C/c2cccc(Br)c2)SC1=S)Nc1ccccc1O [FE15] | – | – | – | – | – | – | – | EC50 (HIV-1): 86.7 µM
O=C1/C(=C/c2c(NCCCO)nc3ccccn3c2=O)SC(=S)N1CCc1ccccc1 [FE109] | – | – | – | – | – | – | – | Ki (DDX3X): 0.2 µM

Now from value to compound, other results behind:

Ki (DDX3X ATPase) [µM] | Percentage in parentheses beside AppP (membrane retention) [1] [%] | Papp at 5 h, 0.5 mM [1] [×10⁻⁶ cm/s] | IC50 (HIV-1 (NL4-3); [3]) [µM] | solubility at 24 h (Water solubility assay; [4]) [µg/mL] | solubility at 24 h (Water solubility assay; [5]) [µM] | SMILES | CC50 at 72 h [2] [µM] | other results
> 50 | – | – | – | – | – | COc1ccc(-c2nnc(N3C(=O)c4ccccc4C3=O)s2)cc1 [Compound 17, 2-(5-(4-Methoxyphenyl)-1,3,4-thiadiazol-2-yl)isoindoline-1,3-dione] | – | DDX3X ATPase Ki (apparent dissociation constant for inhibitor binding) (DDX3X ATPase): completely inactive
1.9 ± 0.4 | 0 | < 0.1 | 3.9 | 27.8 | 83.2 | O=C(O)c1ccccc1C(=O)Nc1nnc(-c2ccc(O)cc2)s1 [Compound 24, 2-((5-(4-Hydroxyphenyl)-1,3,4-thiadiazol-2-yl)carbamoyl)benzoic acid] | 125 | IC50 (HIV-1 (NL4-3); H9 cells): 2.8 ± 1.5 µM; SI (selectivity index) (H9 cells): 45
11.9 ± 1.9 | – | – | > 50 | – | – | CN(C)c1ccc(-c2nnc(NC(=O)c3ccccc3C(=O)O)s2)cc1 [Compound 27, 2-((5-(4-(Dimethylamino)phenyl)-1,3,4-thiadiazol-2-yl)carbamoyl)benzoic acid] | 130 | –
20.1 ± 2.1 | 4.6 | 2.1 | > 50 | < 0.1 | > 1 | CCOC(=O)c1ccccc1C(=O)Nc1nnc(-c2ccc(OC)cc2)s1 [Compound 30, Ethyl 2-((5-(4-methoxyphenyl)-1,3,4-thiadiazol-2-yl)carbamoyl)benzoate] | > 200 | –
35.4 ± 3.5 | – | – | > 50 | – | – | O=C(Nc1nnc(-c2ccccc2[N+](=O)[O-])s1)c1ccccc1S(=O)(=O)O [Compound 34, 2-((5-(2-Nitrophenyl)-1,3,4-thiadiazol-2-yl)carbamoyl)benzenesulfonic acid] | 110 | –
